molecular target: T1, human PAD4 (Homo sapiens, UniProt Q9UM07); assay: In vitro PAD4 BAEE biochemical assay; settings: human PAD4, BAEE substrate; 5 nM PAD4, 2 mM calcium chloride, 3 mM BAEE; geometric mean of multiple experiments
T1 construct: human PAD4 (NM_012387), A2P663, was PCR amplified; His-SUMO (N, cleaved yes); made in house; host or cells: E. coli BL21(DE3)
In short: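 Ammonia generated from BAEE serves as the readout, measured by o-phthalaldehyde after EDTA termination. Final conditions: 5 nM human PAD4 (SUMO tag cleaved), 2 mM CaCl2, 3 mM BAEE, pH 7.6 MOPS buffer, 25 °C for 2 h following a 30-min compound preincubation.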

T1 sequence (Q9UM07 2-663): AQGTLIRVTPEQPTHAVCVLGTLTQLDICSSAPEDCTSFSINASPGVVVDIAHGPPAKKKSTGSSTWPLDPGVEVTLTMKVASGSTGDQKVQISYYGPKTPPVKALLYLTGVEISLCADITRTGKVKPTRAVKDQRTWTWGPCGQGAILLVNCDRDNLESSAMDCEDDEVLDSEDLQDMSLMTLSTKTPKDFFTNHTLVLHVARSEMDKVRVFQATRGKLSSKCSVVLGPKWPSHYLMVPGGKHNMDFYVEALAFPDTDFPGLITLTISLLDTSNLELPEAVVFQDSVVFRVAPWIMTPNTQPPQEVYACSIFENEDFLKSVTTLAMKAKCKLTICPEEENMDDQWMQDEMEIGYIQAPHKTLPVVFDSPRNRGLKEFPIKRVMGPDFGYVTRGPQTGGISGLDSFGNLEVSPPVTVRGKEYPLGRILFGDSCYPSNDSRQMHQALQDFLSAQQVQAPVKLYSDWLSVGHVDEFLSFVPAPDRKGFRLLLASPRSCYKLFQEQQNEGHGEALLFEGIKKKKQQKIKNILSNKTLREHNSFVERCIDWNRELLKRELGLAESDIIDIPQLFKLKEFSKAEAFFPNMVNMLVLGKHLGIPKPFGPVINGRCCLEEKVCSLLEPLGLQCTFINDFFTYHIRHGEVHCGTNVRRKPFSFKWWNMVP

Row | Compound | IC50
1 | COc1cc(C(=O)N2[C@H]3CC[C@@H]2[C@H](N)C3)cc2nc(-c3cc4ccc([C@@H](C)N5CCCC5=O)nc4n3CC3CC3)c(C)n12 [Example 276, 1-[(1~{R})-1-[2-[7-[(1~{R},2~{R},4~{S})-2-amino-7-azabicyclo[2.2.1]heptane-7-carbonyl]-5-methoxy-3-methylimidazo [1,2-a]pyridin-2-yl]-1-(cyclopropylmethyl)pyrrolo [2,3-b]pyridin-6-yl]ethyl]pyrrolidin-2-one] | 61.6 nM
2 | COc1cc(C(=O)N2C[C@H]3C[C@@]3(N)C2)cc2nc(-c3cc4ccc([C@@H](C)NC(=O)C56CC(F)(C5)C6)nc4n3CC3CC3)c(C)n12 [Example 24, ~{N}-[(1~{R})-1-[2-[7-[(1~{S},5~{R})-1-amino-3-azabicyclo [3.1.0]hexane-3-carbonyl]-5-methoxy-3-methylimidazo [1,2-a]pyridin-2-yl]-1-(cyclopropylmethyl)pyrrolo[2,3-b]pyridin-6-yl]ethyl]-3-fluorobicyclo[1.1.1] pentane-1-carboxamide] | 9010 nM
3 | COc1cc(C(=O)N(C)C2CCCNC2)cc2nc(-c3cc4ccc(N(C(F)F)S(C)(=O)=O)nc4n3CC3CC3)c(C)n12 (stereo not shown) [Example 328, 2-[1-(cyclopropylmethyl)-6-[difluoromethyl (methylsulfonyl)amino]pyrrolo[2,3-b]pyridin-2-yl]-5-methoxy-~{N}, 3-dimethyl-~{N}-piperidin-3-ylimidazo [1,2-a]pyridine-7-carboxamide] | 4880 nM
4 | COc1cc(C(=O)N2[C@@H]3CC[C@@H](N)[C@H]2CC3)cc2nc(-c3cc4ccc(N(C(F)F)S(C)(=O)=O)nc4n3CC(F)(F)F)c(C)n12 [Example 495, ~{N}-[2-[7-[(1~{R},2~{R}, 5~{R})-2-amino-8-azabicyclo[3.2.1]octane-8-carbonyl]-5-methoxy-3-methylimidazo[1,2-a]pyridin-2-yl]-1-(2,2,2-trifluoroethyl)pyrrolo [2,3-b]pyridin-6-yl]-~{N}-(difluoromethyl) methanesulfonamide] | 202 nM
5 | COc1cc(C(=O)N2[C@H]3CC[C@@H]2[C@H](N)C3)cc2nc(-c3cc4ccc([C@@H](C)NC(=O)c5cc(C)nc(Cl)c5)nc4n3CC3CC3)c(C)n12 [Example 46, ~{N}-[(1~{R})-1-[2-[7-[(1~{R},2~{R},4~{S})-2-amino-7-azabicyclo[2.2.1]heptane-7-carbonyl]-5-methoxy-3-methylimidazo [1,2-a]pyridin-2-yl]-1-(cyclopropylmethyl)pyrrolo[2,3-b]pyridin-6-yl]ethyl]-2-chloro-6-methylpyridine-4-carboxamide] | 33.4 nM
6 | Cc1c(-c2cc3ccc(N(C(F)F)S(C)(=O)=O)nc3n2CC2CC2)nc2cc(C(=O)N3C[C@H](N)CC[C@@H]3C)ccn12 [Example 402, ~{N}-[2-[7-[(2~{S},5~{R})-5-amino-2-methylpiperidine-1-carbonyl]-3-methylimidazo[1,2-a]pyridin-2-yl]-1-(cyclopropylmethyl)pyrrolo [2,3-b]pyridin-6-yl]-~{N}-(difluoromethyl) methanesulfonamide] | 203 nM
7 | COc1cc(C(=O)N2CC[C@@H]3CCCN[C@@H]3C2)cc2nc(-c3cc4ccc([C@@H](C)NC(=O)C56CC(F)(C5)C6)nc4n3CC3CC3)c(C)n12 [Example 181, ~{N}-[(1~{R})-1-[2-[7-[(4~{a}~{S},8~{a}~{S})-2,3,4,4~{a},5,6,8,8~{a}-octahydro-1~{H}-1,7-naphthyridine-7-carbonyl]-5-methoxy-3-methylimidazo [1,2-a]pyridin-2-yl]-1-(cyclopropylmethyl)pyrrolo [2,3-b]pyridin-6-yl]ethyl]-3-fluorobicyclo[1.1.1]pentane-1-carboxamide] | 10500 nM
8 | COc1cc(C(=O)N2CCC[C@@H](N)C2)cc2nc(-c3cc4ccc(C(NC(C)=O)C5CC5)nc4n3CC3CC3)c(C)n12 (stereo partly drawn) [Example 194, N-((2-(7-((R)-3-aminopiperidine-1-carbonyl)-5-methoxy-3-methylimidazo[1,2-a]pyridin-2-yl)-1-(cyclopropylmethyl)-1H-pyrrolo[2,3-b]pyridin-6-yl)(cyclopropyl)methyl)acetamide] | 1090 nM
9 | COc1ccc(-c2ccc3cc(-c4nc5cc(C(=O)N6[C@H]7CC[C@@H]6[C@H](N)C7)cc(OC)n5c4C)n(CC4CC4)c3n2)c(C)n1 [Example 556, [(1~{R},2~{R},4~{S})-2-amino-7-azabicyclo [2.2.1]heptan-7-yl]-[2-[1-(cyclopropylmethyl)-6-(6-methoxy-2-methylpyridin-3-yl)pyrrolo[2,3-b]pyridin-2-yl]-5-methoxy-3-methylimidazo[1,2-a]pyridin-7-yl]methanone] | 296 nM
10 | [(1~{R},2~{R},4~{S})-2- amino-7-azabicyclo [2.2.1]heptan-7-yl]-[2-[1- (cyclopropylmethyl)-6-(6- hydroxy-2-methylpyridin- 3-yl)pyrrolo[2,3-b] pyridin-2-yl]-5-methoxy-3- methylimidazo[1,2-a] pyridin-7-yl]methanone [Example 563] | 106 nM
11 | COc1cc(C(=O)N2[C@H]3CC[C@@H]2[C@H](N)C3)cc2nc(-c3cc4ccc([C@@H](C)NC(=O)CC5(OC)CCC5)nc4n3CC3CC3)c(C)n12 [Example 32, ~{N}-[(1~{R})-1-[2-[7-[(1~{R},2~{R},4~{S})-2-amino-7-azabicyclo [2.2.1]heptane-7-carbonyl]-5-methoxy-3-methylimidazo[1,2-a]pyridin-2-yl]-1-(cyclopropylmethyl)pyrrolo[2,3-b]pyridin-6-yl]ethyl]-2-(1-methoxycyclobutyl) acetamide] | 83 nM
12 | COc1cc(C(=O)N2[C@H]3CC[C@@H]2[C@H](N)C3)cc2nc(-c3cc4ccc(C(O)C(F)(F)F)nc4n3CC3CC3)c(C)n12 (stereo partly shown) [Example 569, [(1~{R},2~{R},4~{S})-2-amino-7-azabicyclo [2.2.1]heptan-7-yl]-[2-[1-(cyclopropylmethyl)-6-(2,2,2-trifluoro-1-hydroxyethyl)pyrrolo [2,3-b]pyridin-2-yl]-5-methoxy-3-methylimidazo[1,2-a]pyridin-7-yl]methanone] | 145 nM
13 | COc1cc(C(=O)N2[C@H]3CC[C@@H]2[C@H](N)C3)cc2nc(-c3cc4ccc([C@@H](C)NC(=O)N5CC(OC(F)F)C5)nc4n3CC3CC3)c(C)n12 [Example 205, ~{N}-[(1~{R})-1-[2-[7-[(1~{R},2~{R},4~{S})-2-amino-7-azabicyclo[2.2.1]heptane-7-carbonyl]-5-methoxy-3-methylimidazo [1,2-a]pyridin-2-yl]-1-(cyclopropylmethyl)pyrrolo [2,3-b]pyridin-6-yl]ethyl]-3-(difluoromethoxy)azetidine-1-carboxamide] | 34.8 nM
14 | COc1cc(C(=O)N2C[C@H]3CC(F)[C@@H]2[C@@H]3N)cc2nc(-c3cc4ccc(N(C(F)F)S(C)(=O)=O)nc4n3CC3CC3)c(C)n12 (stereo partly drawn) [Example 361, N-[2-[7-[(1S,4R,7R)-7-amino-6-fluoro-2-azabicyclo[2.2.1]heptane-2-carbonyl]-5-methoxy-3-methyl-imidazo[1,2-a]pyridin-2-yl]-1-(cyclopropylmethyl)pyrrolo [2,3-b]pyridin-6-yl]-N-(difluoromethyl) methanesulfonamide] | 258 nM
15 | COc1cc(C(=O)N2[C@H]3CC[C@@H]2[C@H](N)C3)cc2nc(-c3cc4ccc([C@@H](C)NC(=O)N5CC(F)(F)C5)nc4n3CC3CC3)c(C)n12 [Example 232, N—((R)-1-(2-(7-((1R,2R,4S)-2-amino-7-azabicyclo[2.2.1]heptane-7-carbonyl)-5-methoxy-3-methylimidazo[1,2-a]pyridin-2-yl)-1-(cyclopropylmethyl)-1H-pyrrolo[2,3-b]pyridin-6-yl)ethyl)-3,3-difluoroazetidine-1-carboxamide] | 68.5 nM
16 | COc1cc(C(=O)N2[C@H]3CC[C@@H]2[C@H](N)C3)cc2nc(-c3cc4ccc([C@@H](C)NC(=O)c5ccccn5)nc4n3CC3CC3)c(C)n12 [Example 175, ~{N}-[(1~{R})-1-[2-[7-[(1~{R},2~{R},4~{S})-2-amino-7-azabicyclo[2.2.1]heptane-7-carbonyl]-5-methoxy-3-methylimidazo [1,2-a]pyridin-2-yl]-1-(cyclopropylmethyl)pyrrolo [2,3-b]pyridin-6-yl]ethyl]pyridine-2-carboxamide] | 181 nM
17 | COc1cc(C(=O)N2CCC[C@@H](N)[C@H]2C)cc2nc(-c3cc4ccc(N(C(F)F)S(C)(=O)=O)nc4n3CC3CC3)c(C)n12 [Example 411, ~{N}-[2-[7-[(2~{R},3~{R})-3-amino-2-methylpiperidine-1-carbonyl]-5-methoxy-3-methylimidazo[1,2-a]pyridin-2-yl]-1-(cyclopropylmethyl)pyrrolo [2,3-b]pyridin-6-yl]-~{N}-(difluoromethyl) methanesulfonamide] | 143 nM
18 | COc1cc(C(=O)N2[C@H]3CC[C@@H]2[C@H](N)C3)cc2nc(-c3cc4ccc([C@@H](C)NC(=O)c5ccncc5)nc4n3CC3CC3)c(C)n12 [Example 119, ~{N}-[(1~{R})-1-[2-[7-[(1~{R},2~{R},4~{S})-2-amino-7-azabicyclo[2.2.1]heptane-7-carbonyl]-5-methoxy-3-methylimidazo [1,2-a]pyridin-2-yl]-1-(cyclopropylmethyl)pyrrolo [2,3-b]pyridin-6-yl]ethyl] pyridine-4-carboxamide] | 34.5 nM
19 | COc1cc(C(=O)N2CCC[C@@H](N)C2)cc2nc(-c3cc4ccc(OCC(N)=O)nc4n3CC3CC3)c(C)n12 [Example 621, 2-[2-[7-[(3~{R})-3-aminopiperidine-1-carbonyl]-5-methoxy-3-methylimidazo[1,2-a]pyridin-2-yl]-1-(cyclopropylmethyl)pyrrolo [2,3-b]pyridin-6-yl]oxyacetamide] | 1020 nM

Source: US12240862B2, “Inhibitors of peptidylarginine deiminases” (Gilead Sciences, Inc., priority 2020, dated 2025)
